From ChEMBL document CHEMBL3351609, “Pyrrolopyridines-quinazolines Inhibitors of PKR-Like ER Kinase” (ACS Med Chem Lett, 2015)

target: T1, Eukaryotic translation initiation factor 2-alpha kinase 3 (Homo sapiens, UniProt Q9NZJ5); experiment: Inhibition of recombinant GST-tagged PERK (unknown origin) by LanthaScreen assay
T1 sequence (Q9NZJ5 whole entry): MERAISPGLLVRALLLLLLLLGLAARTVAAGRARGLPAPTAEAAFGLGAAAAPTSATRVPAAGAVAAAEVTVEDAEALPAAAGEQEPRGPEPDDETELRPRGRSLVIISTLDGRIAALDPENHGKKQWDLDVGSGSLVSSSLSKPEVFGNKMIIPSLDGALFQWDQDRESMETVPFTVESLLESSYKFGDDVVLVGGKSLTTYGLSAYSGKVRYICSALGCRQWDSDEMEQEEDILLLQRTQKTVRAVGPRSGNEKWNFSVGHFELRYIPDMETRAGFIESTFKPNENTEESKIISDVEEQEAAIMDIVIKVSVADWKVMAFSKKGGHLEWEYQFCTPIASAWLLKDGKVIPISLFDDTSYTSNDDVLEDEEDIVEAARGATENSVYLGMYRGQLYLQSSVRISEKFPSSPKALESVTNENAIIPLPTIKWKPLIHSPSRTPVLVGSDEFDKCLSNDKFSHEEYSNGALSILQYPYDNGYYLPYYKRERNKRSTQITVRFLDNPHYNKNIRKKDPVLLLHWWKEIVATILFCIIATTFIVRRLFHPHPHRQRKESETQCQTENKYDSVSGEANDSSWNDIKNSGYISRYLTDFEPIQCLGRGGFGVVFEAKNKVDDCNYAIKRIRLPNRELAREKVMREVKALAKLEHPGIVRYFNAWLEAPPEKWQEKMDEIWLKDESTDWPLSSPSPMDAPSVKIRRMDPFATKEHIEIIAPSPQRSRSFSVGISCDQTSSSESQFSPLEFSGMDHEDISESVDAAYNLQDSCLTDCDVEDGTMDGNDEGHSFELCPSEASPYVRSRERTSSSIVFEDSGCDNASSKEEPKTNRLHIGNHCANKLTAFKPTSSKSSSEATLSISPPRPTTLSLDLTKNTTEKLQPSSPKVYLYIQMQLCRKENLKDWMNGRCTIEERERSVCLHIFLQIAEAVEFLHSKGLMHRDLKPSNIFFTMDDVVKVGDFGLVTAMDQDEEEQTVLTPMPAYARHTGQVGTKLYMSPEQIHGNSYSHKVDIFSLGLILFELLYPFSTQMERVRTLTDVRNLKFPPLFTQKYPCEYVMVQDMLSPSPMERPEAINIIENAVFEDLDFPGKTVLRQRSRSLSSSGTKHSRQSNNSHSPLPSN

IC50	Compound
0.398 nM	COc1cc2ncnc(Nc3ccc4c(c3)CCN4C(=O)Cc3cc(F)ccc3F)c2cc1OC
5.01 nM	COc1cc2ncnc(Nc3ccc4c(c3)CCN4C(=O)Cc3c[nH]c4ccccc34)c2cc1OC
0.631 nM	COc1cc2ncnc(Nc3ccc4c(c3)CCN4C(=O)Cc3c(C)[nH]c4cc(F)ccc34)c2cc1OC

target: T1, Eukaryotic translation initiation factor 2-alpha kinase 3; experiment: Inhibition of PERK (unknown origin) expressed in HEK293 cells assessed as inhibition of phosphorylation of GFP-eIF2 alpha by cell-based TR-FRET assay

IC50	Compound
316 nM	COc1cc2ncnc(Nc3ccc4c(c3)CCN4C(=O)Cn3ccc4ccccc43)c2cc1OC
> 31600 nM	COc1cc2ncnc(Nc3ccc4c(c3)CCN4C(=O)Cc3coc4ccccc34)c2cc1OC
50.1 nM	COc1cc2ncnc(Nc3ccc4c(c3)CCN4C(=O)Cc3cc(F)ccc3F)c2cc1OC
501 nM	COc1cc2ncnc(Nc3ccc4c(c3)CCN4C(=O)Cc3c[nH]c4ccccc34)c2cc1OC
25.1 nM	COc1cc2ncnc(Nc3ccc4c(c3)CCN4C(=O)Cc3c(C)[nH]c4cc(F)ccc34)c2cc1OC
